Reference: ChEMBL document CHEMBL1127553, “Derivatives of a novel cyclopeptolide. 2. Synthesis, activity against multidrug resistance in CHO and KB cells in vitro, and structure-activity relationships” (1994)

How the values were obtained:
CHO [1] = assay: The sensitizing capacity for colchicine treatment of multi drug resistance (MDR) CHO cell at concentration 1.0(mg/L).; assay type: functional, Cricetulus griseus
CHO [2] = assay: Sensitization of colchicine treated parental (PAR)CHO cells, measured at concentration 0.1(mg/L); assay type: functional, Cricetulus griseus
CHO [3] = assay: The sensitizing capacity for colchicine treatment of parental (PAR)CHO cells at concentration 1.0 (mg/L); assay type: functional, Cricetulus griseus
CHO [4] = assay: The sensitizing capacity for colchicine treatment of multi drug resistance(MDR) in CHO cell at concentration 0.1(mg/L).; assay type: functional, Cricetulus griseus
KB [5] = assay: The sensitizing capacity of compound for colchicine treatment of multi drug resistance in KB cell was measured at concentration 3.0 (mg/L); assay type: functional, Homo sapiens
KB [6] = assay: The sensitizing capacity of compound for colchicine treatment of multi drug resistance in KB cell was measured at concentration 1.0(mg/L); assay type: functional, Homo sapiens

| Structure (SMILES) | Activity (CHO [1]) | Activity (CHO [2]) | Activity (CHO [3]) | Activity (CHO [4]) | Activity (KB [5]) | Activity (KB [6]) |
| --- | --- | --- | --- | --- | --- | --- |
| CC[C@H](C)[C@H]1C(=O)NCC(=O)N(C)[C@@H](C(C)C)C(=O)N[C@@H](Cc2ccc(OC)cc2)C(=O)O[C@H](C)C(=O)N2CCCC[C@H]2C(=O)N(C)[C@@H](C(C)C)C(=O)N[C@@H](C(C)C)C(=O)N(C)[C@@H](CC(=O)OC)C(=O)N(C)[C@@H]([C@@H](C)CC)C(=O)N1C | 84 | 6.4 | 8.4 | 1.9 |  |  |
| CC[C@H](C)[C@H]1C(=O)NCC(=O)N(C)[C@@H](C(C)C)C(=O)N[C@@H](Cc2ccc(OC)cc2)C(=O)O[C@H](C)C(=O)N2CCCC[C@H]2C(=O)N(C)[C@@H](C(C)C)C(=O)N[C@@H](C(C)C)C(=O)N(C)[C@@H](CC(=O)OCC23CC4CC(CC(C4)C2)C3)C(=O)N(C)[C@@H]([C@@H](C)CC)C(=O)N1C | 6.7 | 5.9 | 8.5 | 1 |  |  |
| CC[C@H](C)[C@H]1C(=O)NCC(=O)N(C)[C@@H](C(C)C)C(=O)N[C@@H](Cc2ccc(OC)cc2)C(=O)O[C@H](C)C(=O)N2CCCC[C@H]2C(=O)N(C)[C@@H](C(C)C)C(=O)N[C@@H](C(C)C)C(=O)N(C)[C@@H](CC(=O)OC23CC4CC(CC(C4)C2)C3)C(=O)N(C)[C@@H]([C@@H](C)CC)C(=O)N1C | 77 | 4.5 | 6 | 1.9 |  |  |
| CC[C@@H](C)[C@H]1C(=O)NCC(=O)N(C)[C@@H](C(C)C)C(=O)N[C@@H](Cc2ccc(OC)cc2)C(=O)O[C@H](C)C(=O)N2CCCC[C@H]2C(=O)N(C)[C@@H](C(C)C)C(=O)N[C@@H](C(C)C)C(=O)N(C)[C@H](CC=O)C(=O)N(C)[C@@H]([C@@H](C)CC)C(=O)N1C | 28 | 4.6 | 8.2 | 1.1 |  |  |
| CC[C@@H](C)[C@H]1C(=O)N(C)CC(=O)N(C)[C@@H](C(C)C)C(=O)N(C)[C@@H](Cc2ccc(OC)cc2)C(=O)O[C@H](C)C(=O)N2CCCC[C@H]2C(=O)N(C)[C@@H](C(C)C)C(=O)N(C)[C@@H](C(C)C)C(=O)N(C)[C@H](CC(=O)OC(C)(C)C)C(=O)N(C)[C@@H]([C@@H](C)CC)C(=O)N1C | 24 | 3.6 | 8.7 | 1.2 |  |  |
| CC[C@@H](C)[C@H]1C(=O)NCC(=O)N(C)[C@@H](C(C)C)C(=O)N[C@@H](Cc2ccc(OC)cc2)C(=O)O[C@@H](C)C(=O)N2CCCC[C@H]2C(=O)N(C)[C@@H](C(C)C)C(=O)N[C@@H](C(C)C)C(=O)N(C)[C@H](CC(=O)NCC(C)(C)C)C(=O)N(C)[C@@H]([C@@H](C)CC)C(=O)N1C | 358 | 8 | 13 | 95 | 82 | 2.2 |
| CC[C@@H](C)[C@H]1C(=O)NCC(=O)N(C)[C@@H](C(C)C)C(=O)N[C@@H](Cc2ccc(OC)cc2)C(=O)O[C@@H](C)C(=O)N2CCCC[C@H]2C(=O)N(C)[C@@H](C(C)C)C(=O)N[C@@H](C(C)C)C(=O)N(C)[C@H](CC(=O)NC(C)(C)C)C(=O)N(C)[C@@H]([C@@H](C)CC)C(=O)N1C | 343 | 8.4 | 12 | 70 | 113 | 1.5 |
| CC[C@H](C)[C@H]1C(=O)NCC(=O)N(C)[C@@H](C(C)C)C(=O)N[C@@H](Cc2ccc(OC)cc2)C(=O)O[C@@H](C)C(=O)N2CCCC[C@H]2C(=O)N(C)[C@@H](C(C)C)C(=O)N[C@@H](C(C)C)C(=O)N(C)[C@@H](CC(=O)OCC23CC4CC(CC(C4)C2)C3)C(=O)N(C)[C@@H]([C@@H](C)CC)C(=O)N1C | 78 | 6.9 | 7.4 | 1.4 | 3 | 1.3 |
| CC[C@H](C)[C@H]1C(=O)NCC(=O)N(C)[C@@H](C(C)C)C(=O)N[C@@H](Cc2ccc(OC)cc2)C(=O)O[C@@H](C)C(=O)N2CCCC[C@H]2C(=O)N(C)[C@@H](C(C)C)C(=O)N[C@@H](C(C)C)C(=O)N(C)[C@@H](CC(=O)OCCC(C)(C)C)C(=O)N(C)[C@@H]([C@@H](C)CC)C(=O)N1C | 292 | 6.7 | 7.9 | 17 | 25 | 1.7 |
| C=CCOc1ccc(C[C@@H]2NC(=O)[C@H](C(C)C)N(C)C(=O)CNC(=O)[C@H]([C@@H](C)CC)N(C)C(=O)[C@H]([C@@H](C)CC)N(C)C(=O)[C@H](CC(=O)OC(C)(C)C)N(C)C(=O)[C@H](C(C)C)NC(=O)[C@H](C(C)C)N(C)C(=O)[C@@H]3CCCCN3C(=O)[C@@H](C)OC2=O)cc1 | 9.6 | 5.8 | 11 | 1.5 |  |  |
| CC[C@@H](C)[C@H]1C(=O)NCC(=O)N(C)[C@@H](C(C)C)C(=O)N[C@@H](Cc2ccc(OC)cc2)C(=O)O[C@H](C)C(=O)N2CCCC[C@H]2C(=O)N(C)[C@@H](C(C)C)C(=O)N[C@@H](C(C)C)C(=O)N(C)[C@H](CC(=O)N[C@H](C(=O)OC(C)(C)C)C(C)C)C(=O)N(C)[C@@H]([C@@H](C)CC)C(=O)N1C | 187 | 6 | 8.5 | 15 | 124 | 1.2 |
| CC[C@@H](C)[C@H]1C(=O)NCC(=O)N(C)[C@@H](C(C)C)C(=O)N[C@@H](Cc2ccc(OC)cc2)C(=O)O[C@@H](C)C(=O)N2CCCC[C@H]2C(=O)N(C)[C@@H](C(C)C)C(=O)N[C@@H](C(C)C)C(=O)N(C)[C@H](CC(=O)N[C@H](C(=O)OC(C)(C)C)C(C)C)C(=O)N(C)[C@@H]([C@@H](C)CC)C(=O)N1C | 344 | 8.6 | 11 | 115 |  |  |
| CC[C@@H](C)[C@H]1C(=O)NCC(=O)N(C)[C@@H](C(C)C)C(=O)N[C@@H](Cc2ccc(OC)cc2)C(=O)O[C@H](C)C(=O)N2CCCC[C@H]2C(=O)N(C)[C@@H](C(C)C)C(=O)N[C@@H](C(C)C)C(=O)N(C)[C@H](CC(=O)N2CCCCC2)C(=O)N(C)[C@@H]([C@@H](C)CC)C(=O)N1C | 137 | 7.1 | 10 | 3.2 |  |  |
| CC[C@@H](C)[C@H]1C(=O)NCC(=O)N(C)[C@@H](C(C)C)C(=O)N[C@@H](Cc2ccc(OC)cc2)C(=O)N[C@@H](C)C(=O)N2CCCC[C@H]2C(=O)N(C)[C@@H](C(C)C)C(=O)N[C@@H](C(C)C)C(=O)N(C)[C@H](CC(=O)OC(C)(C)C)C(=O)N(C)[C@@H]([C@@H](C)CC)C(=O)N1C | 144 | 4.6 | 6.2 | 5.2 |  |  |
| CC[C@@H](C)[C@H]1C(=O)NCC(=O)N(C)[C@@H](C(C)C)C(=O)N[C@@H](Cc2ccc(OC)cc2)C(=O)O[C@@H](C)C(=O)N2CCCC[C@H]2C(=O)N(C)[C@@H](C(C)C)C(=O)N[C@@H](C(C)C)C(=O)N(C)[C@H](CC(=O)NC23CC4CC(CC(C4)C2)C3)C(=O)N(C)[C@@H]([C@@H](C)CC)C(=O)N1C | 290 | 7.7 | 8 | 92 | 772 | 3.7 |
| CC[C@H](C)[C@H]1C(=O)NCC(=O)N(C)[C@@H](C(C)C)C(=O)N[C@@H](Cc2ccc(OC)cc2)C(=O)O[C@H](C)C(=O)N2CCCC[C@H]2C(=O)N(C)[C@@H](C(C)C)C(=O)N[C@@H](C(C)C)C(=O)N(C)[C@@H](CC(=O)NCc2ccco2)C(=O)N(C)[C@@H]([C@@H](C)CC)C(=O)N1C | 91 | 6.8 | 10 | 1.6 |  |  |
| CC[C@H](C)[C@H]1C(=O)NCC(=O)N(C)[C@@H](C(C)C)C(=O)N[C@@H](Cc2ccc(OC)cc2)C(=O)O[C@H](C)C(=O)N2CCCC[C@H]2C(=O)N(C)[C@@H](C(C)C)C(=O)N[C@@H](C(C)C)C(=O)N(C)[C@@H](CC(=O)NCCC(C)C)C(=O)N(C)[C@@H]([C@@H](C)CC)C(=O)N1C | 126 | 5.8 | 8.1 | 3.7 | 1.1 | 1 |
| CC[C@H](C)[C@H]1C(=O)NCC(=O)N(C)[C@@H](C(C)C)C(=O)N[C@@H](Cc2ccc(O)cc2)C(=O)O[C@H](C)C(=O)N2CCCC[C@H]2C(=O)N(C)[C@@H](C(C)C)C(=O)N[C@@H](C(C)C)C(=O)N(C)[C@@H](CC(=O)OC(C)(C)C)C(=O)N(C)[C@@H]([C@@H](C)CC)C(=O)N1C | 172 | 6.5 | 14 | 2.5 |  |  |
| CC[C@@H](C)[C@H]1C(=O)NCC(=O)N(C)[C@@H](C(C)C)C(=O)N[C@@H](Cc2ccc(OC)cc2)C(=O)O[C@H](C)C(=O)N2CCCC[C@H]2C(=O)N(C)[C@@H](C(C)C)C(=O)N[C@@H](C(C)C)C(=O)N(C)[C@H](CC(=O)NCC(C)(C)C)C(=O)N(C)[C@@H]([C@@H](C)CC)C(=O)N1C | 155 | 7.4 | 12 | 11 | 2.3 | 1.1 |
| CC[C@@H](C)[C@H]1C(=O)NCC(=O)N(C)[C@@H](C(C)C)C(=O)N[C@@H](Cc2ccc(OC)cc2)C(=O)O[C@H](C)C(=O)N2CCCC[C@H]2C(=O)N(C)[C@@H](C(C)C)C(=O)N[C@@H](C(C)C)C(=O)N(C)[C@H](CC(=O)NC(C)(C)C)C(=O)N(C)[C@@H]([C@@H](C)CC)C(=O)N1C | 151 | 4.4 | 8.4 | 4.1 |  |  |
| CC[C@H](C)[C@H]1C(=O)N(C)[C@@H]([C@@H](C)CC)C(=O)NCC(=O)N(C)[C@@H](C(C)C)C(=O)N[C@@H](Cc2ccc(OC)cc2)C(=O)O[C@H](C)C(=O)N2CCCC[C@H]2C(=O)N(C)[C@@H](C(C)C)C(=O)N[C@@H](C(C)C)C(=O)N(C)[C@H](CN(C)C(C=O)CCCC(=O)OC(C)(C)C)C(=O)N1C (stereo not given in full) | 114 | 6.8 | 8.2 | 4.2 |  |  |
